These results are taken from EPA's ToxValDB 9.5 (doi:10.2903/j.efsa.2012.2927).

Where a name gives a salt, the structure may show the parent alone.

For the data set, the system named is Rattus norvegicus. Particulars: oral, no effects.
Setting [1] is: chronic, duration: 17 weeks, gavage.
The mark [2] stands for this setting: subchronic, duration: 90 days, diet.
The mark [3] stands for this setting: subchronic, duration: 90 days, drinking water.

For the compound `CCC(CC)C(=O)O` [2-Ethylbutyric acid], the NOAEL runs as follows: under setting [1], over 1000 mg/kg-day; under setting [2], over 2500 mg/kg-day; under setting [3], over 1450 mg/kg-day; (subchronic, duration: 90 days) over 219 mg/kg-day.

For `CC(C)CO` [2-Methyl-1-propanol], the NOAEL is, setting by setting: under setting [1], over 1000 mg/kg-day; under setting [2], over 2500 mg/kg-day; under setting [3], over 1450 mg/kg-day; (subchronic, duration: 90 days) over 219 mg/kg-day.

For `CCC(C)C=O` (stereo unspecified) [2-Methylbutanal], the NOAEL is, setting by setting: under setting [1], over 1000 mg/kg-day; under setting [2], over 2500 mg/kg-day; under setting [3], over 1450 mg/kg-day; (subchronic, duration: 90 days) over 219 mg/kg-day.

With `CCC(C)COC(C)=O` (stereo unspecified) [2-Methylbutyl acetate], the NOAEL was over 1000 mg/kg-day under setting [1]; over 2500 mg/kg-day under setting [2]; over 1450 mg/kg-day under setting [3]; over 219 mg/kg-day (subchronic, duration: 90 days).

For the compound `CCC(C)COC(=O)CC(C)C` (stereo unspecified) [2-Methylbutyl isovalerate], the NOAEL is over 1000 mg/kg-day under setting [1]; over 2500 mg/kg-day under setting [2]; over 1450 mg/kg-day under setting [3]; over 219 mg/kg-day (subchronic, duration: 90 days).

For `CCCC(C)C(=O)O` (stereo unspecified) [2-Methylpentanoic acid], the NOAEL reads like this: under setting [1], over 1000 mg/kg-day; under setting [2], over 2500 mg/kg-day; under setting [3], over 1450 mg/kg-day; (subchronic, duration: 90 days) over 219 mg/kg-day.

`CC(C)C(=O)O` [2-Methylpropanoic acid]: the NOAEL under setting [1] is over 1000 mg/kg-day; the NOAEL under setting [2] was over 2500 mg/kg-day; the NOAEL under setting [3] was over 1450 mg/kg-day; the NOAEL (subchronic, duration: 90 days) is over 219 mg/kg-day.

For `CC(C)CC=O` [3-Methylbutanal], the NOAEL reads like this: under setting [1], over 1000 mg/kg-day; under setting [2], over 2500 mg/kg-day; under setting [3], over 1450 mg/kg-day; (subchronic, duration: 90 days) over 219 mg/kg-day.

In the case of `CC(=O)OCCC(C)C` [3-Methylbutyl acetate], the NOAEL under setting [1] is over 1000 mg/kg-day; the NOAEL under setting [2] is over 2500 mg/kg-day; the NOAEL under setting [3] was over 1450 mg/kg-day; the NOAEL (subchronic, duration: 90 days) is over 219 mg/kg-day.

As for `CCC(=O)OCCC(C)C` [3-Methylbutyl propanoate], the NOAEL reads like this: under setting [1], over 1000 mg/kg-day; under setting [2], over 2500 mg/kg-day; under setting [3], over 1450 mg/kg-day; (subchronic, duration: 90 days) over 219 mg/kg-day.

As to `CCC(C)C(=O)OCCC(C)C` (stereo unspecified) [Butanoic acid, 2-methyl-, 3-methylbutyl ester], the NOAEL by setting is: under setting [1], over 1000 mg/kg-day; under setting [2], over 2500 mg/kg-day; under setting [3], over 1450 mg/kg-day; (subchronic, duration: 90 days) over 219 mg/kg-day.

Regarding `CCCC(=O)OCC(C)CC` (stereo unspecified) [Butanoic acid, 2-methylbutyl ester], the no observed adverse effect level (NOAEL) by setting is: under setting [1], over 1000 mg/kg-day; under setting [2], over 2500 mg/kg-day; under setting [3], over 1450 mg/kg-day; (subchronic, duration: 90 days) over 219 mg/kg-day.

For `CC(C)COC(=O)CC(C)C` [Butanoic acid, 3-methyl-, 2-methylpropyl ester], the NOAEL reads like this: under setting [1], over 1000 mg/kg-day; under setting [2], over 2500 mg/kg-day; under setting [3], over 1450 mg/kg-day; (subchronic, duration: 90 days) over 219 mg/kg-day.

On to `CCCC(=O)OCC(COC(=O)CCC)OC(=O)CCC` [Glycerol tributyrate], for which the NOAEL runs as follows: under setting [1], over 1000 mg/kg-day; under setting [2], over 2500 mg/kg-day; under setting [3], over 1450 mg/kg-day; (subchronic, duration: 90 days) over 219 mg/kg-day.

Compound `CCCCCC(C)C(=O)O` (stereo unspecified) [Heptanoic acid, 2-methyl-] returned an NOAEL under setting [1] of over 1000 mg/kg-day; an NOAEL under setting [2] of over 2500 mg/kg-day; an NOAEL under setting [3] of over 1450 mg/kg-day; a no observed adverse effect level (NOAEL) (subchronic, duration: 90 days) of over 219 mg/kg-day.

`CC(C)CCOC=O` [Isoamyl formate] displayed an NOAEL under setting [1] of over 1000 mg/kg-day; an NOAEL under setting [2] of over 2500 mg/kg-day; an NOAEL under setting [3] of over 1450 mg/kg-day; an NOAEL (subchronic, duration: 90 days) of over 219 mg/kg-day.

Take `CC(=O)OCC(C)C` [Isobutyl acetate]: the NOAEL was over 1000 mg/kg-day under setting [1]; over 2500 mg/kg-day under setting [2]; over 1450 mg/kg-day under setting [3]; over 219 mg/kg-day (subchronic, duration: 90 days).

`CCCC(=O)OCC(C)C` [Isobutyl butyrate]: the NOAEL by setting is: under setting [1], over 1000 mg/kg-day; under setting [2], over 2500 mg/kg-day; under setting [3], over 1450 mg/kg-day; (subchronic, duration: 90 days) over 219 mg/kg-day.

For `CC(C)COC(=O)C(C)C` [Isobutyl isobutyrate], the NOAEL was over 1000 mg/kg-day under setting [1]; over 2500 mg/kg-day under setting [2]; over 1450 mg/kg-day under setting [3]; over 219 mg/kg-day (subchronic, duration: 90 days).

Take `CC(C)CCO` [Isopentyl alcohol]: the NOAEL by setting is: under setting [1], over 1000 mg/kg-day; under setting [2], over 2500 mg/kg-day; under setting [3], over 1450 mg/kg-day; (subchronic, duration: 90 days) over 219 mg/kg-day.

`CCCC(=O)OCCC(C)C` [Isopentyl butyrate] registered an NOAEL under setting [1] of over 1000 mg/kg-day; an NOAEL under setting [2] of over 2500 mg/kg-day; an NOAEL under setting [3] of over 1450 mg/kg-day; an NOAEL (subchronic, duration: 90 days) of over 219 mg/kg-day.

In the case of `CC(C)CCOC(=O)C(C)C` [Isopentyl isobutyrate], the NOAEL is, setting by setting: under setting [1], over 1000 mg/kg-day; under setting [2], over 2500 mg/kg-day; under setting [3], over 1450 mg/kg-day; (subchronic, duration: 90 days) over 219 mg/kg-day.

For `CC(C)CC(=O)O` [Isovaleric acid], the NOAEL is over 1000 mg/kg-day under setting [1]; over 2500 mg/kg-day under setting [2]; over 1450 mg/kg-day under setting [3]; over 219 mg/kg-day (subchronic, duration: 90 days).

Compound `CCCCC(C)CCC(=O)O` (stereo unspecified) [Octanoic acid, 4-methyl-] yielded a no-observed-adverse-effect level (NOAEL) under setting [1] of over 1000 mg/kg-day; an NOAEL under setting [2] of over 2500 mg/kg-day; an NOAEL under setting [3] of over 1450 mg/kg-day; an NOAEL (subchronic, duration: 90 days) of over 219 mg/kg-day.
